Measurements published in US10336762B2 (priority 2017, dated 2019).
Where two headings read alike, the source gives them in different places.

Tests used:
TNFα = test: cells; type: cell-based, human; details: LPS-stimulated human monocytes, read-out: EC50 TNF
IRAK4 enzyme = IRAK4 enzyme (Homo sapiens (Human), UniProt Q9NWZ3); test: biochemical; type: biochemical; details: IRAK4 enzyme, 500 μM ATP
[1] = Homo sapiens, Monocyte, TNFα content
[2] = Homo sapiens, Monocyte, TNFα by TR-FRET

Chain of IRAK4 enzyme (Q9NWZ3 whole entry): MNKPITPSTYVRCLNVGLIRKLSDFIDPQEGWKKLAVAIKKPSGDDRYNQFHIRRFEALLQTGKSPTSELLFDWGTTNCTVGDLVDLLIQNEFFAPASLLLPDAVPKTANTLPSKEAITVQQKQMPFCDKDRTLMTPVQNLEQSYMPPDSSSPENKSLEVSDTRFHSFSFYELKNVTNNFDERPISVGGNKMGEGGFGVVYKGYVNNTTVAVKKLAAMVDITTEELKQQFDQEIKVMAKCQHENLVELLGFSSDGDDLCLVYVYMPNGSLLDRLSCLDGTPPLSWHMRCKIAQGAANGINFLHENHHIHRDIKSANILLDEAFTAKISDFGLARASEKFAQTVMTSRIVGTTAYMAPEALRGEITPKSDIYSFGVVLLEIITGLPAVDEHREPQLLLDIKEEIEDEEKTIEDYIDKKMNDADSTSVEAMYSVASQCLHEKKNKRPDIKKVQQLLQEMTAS

| SMILES | EC50 (TNFα; [1]) [nM] | IC50 (IRAK4 enzyme; TR-FRET) [nM] | IC50 (IRAK4 enzyme; TR-FRET (HTRF)) [nM] | further results |
| --- | --- | --- | --- | --- |
| CC(C)(O)[C@H](F)CNC(=O)c1cnc(-c2ccc3cc(C#N)cnn23)cc1Nc1ccc(-c2ncco2)cc1 [Example 228, (R)-6-(3-cyanopyrrolo[1,2-b]pyridazin-7-yl)-N-(2-fluoro-3-hydroxy-3-methylbutyl)-4-((4-(oxazol-2-yl)phenyl)amino) nicotinamide] | 114 | 2 |  |  |
| CN1CC(C(=O)NC[C@H]2C[C@H](Nc3cc(-c4ccc5cc(C#N)cnn45)ncc3C(=O)NC[C@@H](F)C(C)(C)O)C2)C1 [Example 795, 6-(3-cyanopyrrolo[1,2-b]pyridazin-7-yl)-N-((R)-2-fluoro-3-hydroxy-3-methylbutyl)-4-(((1r,3R)-3-((1-methylazetidine-3-carboxamido)methyl)cyclobutyl)amino) nicotinamide] | > 10000 |  | 7 |  |
| CC(C)Nc1cc(-c2ccc3cc(C#N)cnn23)ncc1C(=O)NCC(O)C(C)(C)O (stereo not shown) [Example 330, 6-(3-cyanopyrrolo[1,2-b]pyridazin-7-yl)-N-(2,3-dihydroxy-3-methyl-butyl)-4-(isopropylamino) nicotinamide] | 171 | 6 |  |  |
| CC(C)(O)[C@H](F)CNC(=O)c1cnc(-c2ccc3cc(C#N)cnn23)cc1NC1CC2CCC(C1)N2S(C)(=O)=O (stereo partly drawn) [Example 15, 6-(3-cyanopyrrolo[1,2-b]pyridazin-7-yl)-N-((R)-2-fluoro-3-hydroxy-3-methylbutyl)-4-(((1R,3r,5S)-8-(methylsulfonyl)-8-azabicyclo[3.2.1]octan-3-yl)amino)nicotinamide] |  | 4 |  | EC50 (TNFα; TNFα content): 302 nM |
| CC(C)(O)[C@H](F)CNC(=O)c1cnc(-c2ccc3cc(C#N)cnn23)cc1NC1CCCC(S(C)(=O)=O)C1 (single isomer, unassigned) [Example 515] | 526 |  | 5 |  |
| [2H]C([2H])([2H])OC(=O)NC[C@H]1C[C@H](Nc2cc(-c3ccc4cc(C#N)cnn34)ncc2C(=O)NC[C@@H](F)C(C)(C)O)C1 [Example 867, methyl-d3 (((1R,3r)-3-((2-(3-cyanopyrrolo[1,2-b]pyridazin-7-yl)-5-(((R)-2-fluoro-3-hydroxy-3-methylbutyl)carbamoyl)pyridin-4-yl)amino)cyclo-butyl)methyl)carbamate] |  | < 1 |  | EC50 (TNFα; [2]): 6 nM |
| COC(=O)c1ccc(Nc2cc(-c3ccc4cc(C#N)cnn34)ncc2C(=O)NC[C@@H](F)C(C)(C)O)cc1OC [Example 564, (R)-methyl 4-((2-(3-cyano-pyrrolo[1,2-b]pyridazin-7-yl)-5-((2-fluoro-3-hydroxy-3-methylbutyl)carbamoyl)pyridin-4-yl)amino)-2-methoxybenzoate] | 315 |  | 23 |  |
| CNc1cc(-c2ccc3cc(C#N)cnn23)ncc1C(=O)NCC#N [Example 463, N-(cyanomethyl)-6-(3-cyanopyrrolo[1,2-b]pyridazin-7-yl)-4-(methylamino)nicotinamide] | 163 |  | 3 |  |
| CC(C)(O)[C@H](F)CNC(=O)c1cnc(-c2ccc3cc(C#N)cnn23)cc1N[C@@H]1CC[C@@H](N)C1 [Example 308, 4-(((1R,3R)-3-aminocyclopentyl)amino)-6-(3-cyano-pyrrolo[1,2-b]pyridazin-7-yl)-N-((R)-2-fluoro-3-hydroxy-3-methylbutyl) nicotinamide] | 46 | < 1 |  |  |
| CC1(O)CCCC(Nc2cc(-c3ccc4cc(C#N)cnn34)ncc2C(=O)NC[C@@H](F)C(C)(C)O)C1 (single isomer, unassigned) [Example 529] |  |  | 1 | EC50 (TNFα; TNFα content): 62 nM |
| COC(=O)N1CCC12CC(Nc1cc(-c3ccc4cc(C#N)cnn34)ncc1C(=O)NC[C@@H](F)C(C)(C)O)C2 (stereo partly drawn) [Example 912, (4R,6s)-methyl 6-((2-(3-cyanopyrrolo[1,2-b]pyridazin-7-yl)-5-(((R)-2-fluoro-3-hydroxy-3-methylbutyl)carbamoyl)pyridin-4-yl)amino)-1-azaspiro[3.3]heptane-1-carboxylate] |  | 6 |  | EC50 (TNFα; TNFα by TR-FRET): 176 nM |
| CC(=O)N[C@H]1C[C@@H](Nc2cc(-c3ccc4cc(C#N)cnn34)ncc2C(=O)NC[C@@H](F)C(C)(C)O)C1 [Example 458, 4-(((1s,3S)-3-acetamidocyclobutyl)amino)-6-(3-cyano-pyrrolo[1,2-b]pyridazin-7-yl)-N-((R)-2-fluoro-3-hydroxy-3-methylbutyl)nicotinamide] | 2470 |  | 3 |  |
| CC(C)(O)[C@H](F)CNC(=O)c1cnc(-c2ccc3cc(C#N)cnn23)cc1N[C@H]1C[C@H](Cn2ccnc2)C1 [Example 783, 4-(((1r,3R)-3-((1H-imidazol-1-yl)methyl)cyclo-butyl)amino)-6-(3-cyanopyrrolo[1,2-b]pyridazin-7-yl)-N-((R)-2-fluoro-3-hydroxy-3-methylbutyl)nicotinamide] | 22 |  | < 1 |  |
| CC(C)(O)[C@H](F)CNC(=O)c1cnc(-c2ccc3cc(C#N)cnn23)cc1NC1CC2(CCC2)C1 [Example 99, (R)-6-(3-cyanopyrrolo[1,2-b]pyridazin-7-yl)-N-(2-fluoro-3-hydroxy-3-methylbutyl)-4-(spiro[3.3]heptan-2-ylamino)nicotinamide] | 130 | 1 |  |  |
| CC(C)(O)[C@H](F)CNC(=O)c1cnc(-c2ccc3cc(C#N)cnn23)cc1N[C@H]1CC[C@H](N2CCOC2=O)CC1 [Example 392, 6-(3-cyanopyrrolo[1,2-b]pyridazin-7-yl)-N-((R)-2-fluoro-3-hydroxy-3-methylbutyl)-4-(((1r,4R)-4-(2-oxooxazolidin-3-yl)cyclohexyl)amino) nicotinamide] | 50 | < 1 |  |  |
| CC(C)(O)[C@H](F)CNC(=O)c1cnc(-c2ccc3cc(C#N)cnn23)cc1N[C@@H]1C[C@H]2CNC[C@H]2C1 [Example 251, 6-(3-cyanopyrrolo[1,2-b]pyridazin-7-yl)-N-((R)-2-fluoro-3-hydroxy-3-methylbutyl)-4-(((3aR,5s,6aS)-octa-hydrocyclopenta[c]pyrrol-5-yl)amino) nicotinamide] | 117 | 1 |  |  |
| CC(C)(O)[C@H](F)CNC(=O)c1cnc(-c2ccc3cc(C#N)cnn23)cc1Nc1cncc(C#N)c1 [Example 610, (R)-4-((5-cyanopyridin-3-yl)amino)-6-(3-cyano-pyrrolo[1,2-b]pyridazin-7-yl)-N-(2-fluoro-3-hydroxy-3-methylbutyl)nicotinamide] | 50 |  | < 1 |  |
| CC(C)(O)[C@H](F)CNC(=O)c1cnc(-c2ccc3cc(C#N)cnn23)cc1N[C@H]1CC[C@H](NC(=O)C(F)(F)F)CC1 [Example 313, 6-(3-cyanopyrrolo[1,2-b]pyridazin-7-yl)-N-((R)-2-fluoro-3-hydroxy-3-methylbutyl)-4-(((1r,4R)-4-(2,2,2-trifluoroacetamido)cyclohexyl)amino) nicotinamide] | 37 | 1 |  |  |
| CC(C)(O)[C@H](F)CNC(=O)c1cnc(-c2ccc3cc(C#N)cnn23)cc1N[C@@H]1C[C@@H]2CC[C@H]1O2 [Example 93, 4-(((1R,2R,4S)-7-oxabicyclo[2.2.1]heptan-2-yl)amino)-6-(3-cyano-pyrrolo[1,2-b]pyridazin-7-yl)-N-((R)-2-fluoro-3-hydroxy-3-methylbutyl)nicotinamide] | 78 | 1 |  |  |
| CC(=O)N[C@@H]1CCC[C@H](Nc2cc(-c3ccc4cc(C#N)cnn34)ncc2C(=O)NC[C@@H](F)C(C)(C)O)C1 [Example 532, 4-(((1S,3R)-3-acetamidocyclohexyl)amino)-6-(3-cyano-pyrrolo[1,2-b]pyridazin-7-yl)-N-((R)-2-fluoro-3-hydroxy-3-methylbutyl) nicotinamide] | 122 |  | 1 |  |
| COC(=O)NCC1(O)CC(Nc2cc(-c3ccc4cc(C#N)cnn34)ncc2C(=O)NC[C@@H](F)C(C)(C)O)C1 (single isomer, unassigned) [Example 759] |  |  | 3 | EC50 (TNFα; TNFα content): > 10000 nM |
| CC(C)Nc1cc(-c2ccc3cc(C#N)cnn23)ncc1C(=O)NCC(=O)N1CC(F)(F)C1 [Example 807, 6-(3-cyanopyrrolo[1,2-b]pyridazin-7-yl)-N-(2-(3,3-difluoroazetidin-1-yl)-2-oxoethyl)-4-(isopropylamino) nicotinamide] |  | 2 |  | EC50 (TNFα; [2]): 75 nM |
| C[C@H](NC(=O)c1cnc(-c2ccc3cc(C#N)cnn23)cc1NC12CCC(O)(CC1)CC2)C(=O)N1CC(F)(F)C1 [Example 942, (S)-6-(3-cyanopyrrolo[1,2-b]pyridazin-7-yl)-N-(1-(3,3-difluoroazetidin-1-yl)-1-oxopropan-2-yl)-4-((4-hydroxybicyclo[2.2.2]octan-1-yl)amino) nicotinamide] |  | 8 |  | EC50 (TNFα; [2]): 587 nM |
| CC1(O)CN(C(=O)CNC(=O)c2cnc(-c3ccc4cc(C#N)cnn34)cc2NC23CCC(O)(CC2)CC3)C1 [Example 954, 6-(3-cyanopyrrolo[1,2-b]pyridazin-7-yl)-N-(2-(3-hydroxy-3-methylazetidin-1-yl)-2-oxoethyl)-4-((4-hydroxybicyclo[2.2.2]octan-1-yl)amino) nicotinamide] |  | < 1 |  | EC50 (TNFα; [2]): 213 nM |
| COC(=O)NC[C@H]1C[C@H](Nc2cc(-c3ccc4cc(C#N)cnn34)ncc2C(=O)NCC(=O)N2CC(F)(F)C2)C1 [Example 952, methyl (((1r,3r)-3-((2-(3-cyanopyrrolo[1,2-b]pyridazin-7-yl)-5-((2-(3,3-difluoroazetidin-1-yl)-2-oxoethyl)carbamoyl)pyridin-4-yl)amino)cyclo-butyl)methyl)carbamate] |  | < 1 |  | EC50 (TNFα; [2]): 62 nM |
| CC(C)Nc1cc(-c2ccc3cc(C#N)cnn23)ncc1C(=O)NCC(F)(F)C(C)(C)O [Example 116, 6-(3-cyanopyrrolo[1,2-b]pyridazin-7-yl)-N-(2,2-difluoro-3-hydroxy-3-methylbutyl)-4-(isopropylamino) nicotinamide] | 98 | < 1 |  |  |
